In this assay the target is T1, FLJ13397 clone-derived protein (CARP) (Homo sapiens, UniProt Q9H8M7).
T1 construct: A human full-length cDNA clone was expressed as a protein with an N-terminal His tag; His tag (pDEST17 Gateway vector) (N); made in house; host or cells: Escherichia coli BL21star(DE3)pLysS
T1 sequence (Q9H8M7 1-445): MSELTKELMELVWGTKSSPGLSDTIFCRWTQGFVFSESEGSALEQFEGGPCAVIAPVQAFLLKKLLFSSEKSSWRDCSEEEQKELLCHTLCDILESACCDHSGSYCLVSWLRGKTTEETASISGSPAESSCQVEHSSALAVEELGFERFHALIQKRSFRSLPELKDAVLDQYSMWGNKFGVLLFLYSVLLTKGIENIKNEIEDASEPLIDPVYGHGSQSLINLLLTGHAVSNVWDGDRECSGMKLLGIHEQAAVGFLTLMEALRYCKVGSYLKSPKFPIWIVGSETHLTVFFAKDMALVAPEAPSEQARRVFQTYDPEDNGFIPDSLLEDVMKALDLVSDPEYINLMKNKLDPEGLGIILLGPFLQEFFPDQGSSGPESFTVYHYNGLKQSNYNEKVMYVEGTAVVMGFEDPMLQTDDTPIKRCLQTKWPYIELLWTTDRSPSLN
The assay is described as follows: SEC/MS (size exclusion chromatography / mass analysis) interaction analysis between FLJ13397 clone-derived protein and compounds. In kind it is binding. On the procedure:
BP-reaction was performed on human full-length cDNA clone and the cloning vector Gateway pDONR201 by the PCR cloning method using the Invitrogen Gateway system to yield an entry clone. LR-reaction was performed on this entry clone with the destination vector pDEST17 (Gateway System) and LR Clonase at 25° C. for 60 minutes to yield an expression plasmid. Escherichia coli competent cell BL21star(DE3)pLysS were transformed with this expression plasmid, a clone incorporating the expression vector was selected, and a frozen stock was prepared. The transformant was inoculated into LB medium and precultured, after which it was transferred into SB medium and cultured to induce the expression by IPTG, and the cells were stored frozen.
A human full-length cDNA clone was expressed as a protein with an N-terminal His tag. This clone was purified using BioRobot 8000 (Qiagen) or ACTA Crystal (Amersham). […] In the purification with ACTA Crystal, affinity purification using a HisTrap HP column was followed by gel filtration purification using the Gel Filtration Column HiLoad 16/60 or a 10/30 Superdex 75 prep grade column. The purified fraction was used for interaction analysis after being subjected to SDS-PAGE to verify the estimated molecular weight and purity.
To analyze the interactions between commonly used drugs and proteins expressed from human full-length cDNA clones while keeping both the proteins and the compounds in non-modified, non-immobilized state, size exclusion chromatography (SEC) and mass analysis were used in combination (FIGS. 1 and 2). The specific procedures are shown below.
The compound-protein mixture prepared in step 1 was subjected to chromatography using an SEC column, the compound and the protein were separated by SEC, and the bound compound or compound that interacted with the protein in the protein fraction was analyzed using a mass analyzer.
Protein concentrations were measured using BCA Protein Assay (PIERCE), in consideration of the purity calculated by SDS-PAGE.
Mass analysis was performed using LCQ DECA XP (Thermoelectron) or Q-TOFmicro (Micromass), equipped with an ESI probe. The LC pump used was Agilent 1100 (Yokogawa Analytical Systems), and the autosampler used was HTC-PAL (CTC Analytics) equipped with a cooling stacker.
In the SEC method using a 384-well spin column, Unifilter 100 (Whatman), packed with 10 μL (dry volume) of Bio-Gel P6 (BIO-RAD) and swollen with milliQ water, was used as the SEC column. […] The SEC spin column was mounted on an acetonitrile-aliquoted 384-well U-bottom plate and centrifuged; the SEC spin column filtrate, which is a protein fraction, was retrieved in 50% acetonitrile. The protein precipitate produced by the acetonitrile was removed via centrifugation and filtration for protein removal; the resulting filtrate was concentrated by centrifugation and re-dissolved in 10 μL of 50% methanol to obtain a mass analysis sample. The mobile phase supplied to the mass analyzer was 0.1% formic acid/50% methanol solution in the positive ion mode, and 0.1% ammonia/50% methanol solution in the negative ion mode; these mobile phases were used at a flow rate of 40 μL/min. 2-μL of mass analysis samples were injected using an autosampler at 2-Minute intervals; the mass spectral intensity of the compound was measured to obtain the spectral intensity of the pharmaceutical compound contained in the SEC spin column filtrate (protein fraction eluted from SEC).
(In gel filtration, larger molecules generally elute earlier.)

Setting [1] is: compound 1 μM, protein 0 μM (protein-free reference).
[2] abbreviates: compound 1 μM, protein 23.75 μM.
[3] abbreviates: compound 10 μM, protein 0 μM (protein-free reference).
Where [4] appears, read: compound 10 μM, protein 23.75 μM.
[5] abbreviates: compound 10 μM, protein 47.5 μM.
Setting [6] is: compound 100 μM, protein 0 μM (protein-free reference).
[7] abbreviates: compound 100 μM, protein 23.75 μM.
Setting [8] is: compound 100 μM, protein 47.5 μM.
The mark [9] stands for this setting: compound 250 μM, protein 0 μM (protein-free reference).
The mark [10] stands for this setting: compound 250 μM, protein 23.75 μM.
[11] abbreviates: compound 250 μM, protein 47.5 μM.

Molecules are shown by their SMILES.

Regarding `Nc1nc2ccccc2n1Cc1ccccc1` [2-Amino-1-Benzylbenzimidazole, 2-Amino-1-benzylbenzimidazole], the “spectrum intensity of the extracted mass range (compound in SEC spin column filtrate)” value (“spectrum intensity” below) under setting [1] is given as 5598524; the “spectrum intensity” value under setting [2] turned out to be 1659600; the “spectrum intensity” value (compound 1 μM, protein 47.5 μM) came out at 2958392; the “spectrum intensity” value under setting [3] came to 4341825; the “spectrum intensity” value under setting [4] was 4509110; the “spectrum intensity” value under setting [5] is recorded as 7550402. Also, the “spectrum intensity” value under setting [6] turned out to be 12703620; the “spectrum intensity” value under setting [7] is reported as 32945929; the “spectrum intensity” value under setting [8] worked out at 42993061; the “spectrum intensity” value under setting [9] was 39100216; the “spectrum intensity” value under setting [10] worked out at 125775631; the “spectrum intensity” value under setting [11] is recorded as 559844.
With `CCCS(=O)(=O)c1ccc2[nH]c(N)nc2c1` [2-Amino-5-N-Propylsulphonylbenzimidazole, 2-Amino-5-N-propylsulphonylbenzimidazole], the “spectrum intensity” value by setting is: under setting [1], 825049; under setting [2], 360734; (compound 1 μM, protein 47.5 μM) 484482; under setting [3], 1750199; under setting [4], 1437041; under setting [5], 1664928. The “spectrum intensity” value is, setting by setting: under setting [6], 36160236; under setting [7], 53411123; under setting [8], 52719227; under setting [9], 91113992; under setting [10], 98334673; under setting [11], 159174682.
As for `Nc1nc2ccccc2[nH]1` [2-Aminobenzimidazole], the “spectrum intensity” value is, setting by setting: under setting [1], 276565; under setting [2], 42562; (compound 1 μM, protein 47.5 μM) 152781; under setting [3], 153479; under setting [4], 69826; under setting [5], 71963. Moreover, the “spectrum intensity” value by setting is: under setting [6], 437739; under setting [7], 1819414; under setting [8], 2080493; under setting [9], 2837732; under setting [10], 7370524; under setting [11], 8155388.
With `CCCS(=O)(=O)c1ccc2nc(NC(=O)OC)[nH]c2c1` [Albendazole Sulfone], the “spectrum intensity” value is, setting by setting: under setting [1], 1342766; under setting [2], 1155288; (compound 1 μM, protein 47.5 μM) 761260; under setting [3], 5960539; under setting [4], 5481616; under setting [5], 5089101. The “spectrum intensity” value amounted to 94575228 under setting [6]; 149841728 under setting [7]; 131428354 under setting [8]; 66281031 under setting [9]; 280956724 under setting [10]; 328407687 under setting [11].
Take `CCC[S+]([O-])c1ccc2[nH]c(NC(=O)OC)nc2c1` (stereo not drawn) [Albendazole Sulfoxide]: the “spectrum intensity” value was found to be 1514429 under setting [1]; 1280086 under setting [2]; 1361540 (compound 1 μM, protein 47.5 μM); 11869270 under setting [3]; 13449119 under setting [4]; 14241157 under setting [5]. The “spectrum intensity” value under setting [6] was 125971079; the “spectrum intensity” value under setting [7] was 208777846; the “spectrum intensity” value under setting [8] is on record as 241218904; the “spectrum intensity” value under setting [9] came to 460535649; the “spectrum intensity” value under setting [10] came to 532900104; the “spectrum intensity” value under setting [11] worked out at 372564422.
On to `CCCSc1ccc2nc(NC(=O)OC)[nH]c2c1` [Albendazole], for which the “spectrum intensity” value under setting [1] came out at 99130; the “spectrum intensity” value under setting [2] was 290428; the “spectrum intensity” value (compound 1 μM, protein 47.5 μM) was 247973; the “spectrum intensity” value under setting [3] is reported as 25263; the “spectrum intensity” value under setting [4] was 1117765; the “spectrum intensity” value under setting [5] was 603904. Also, the “spectrum intensity” value under setting [6] is given as 221630; the “spectrum intensity” value under setting [7] was 6713076; the “spectrum intensity” value under setting [8] came to 3946588; the “spectrum intensity” value under setting [9] is recorded as 151791; the “spectrum intensity” value under setting [10] was found to be 18185332; the “spectrum intensity” value under setting [11] is given as 55508710.

(Values after US8153385B2, “Target protein and target gene in drug designing and screening method” (Reverse Proteomics Research Institute Co., Ltd., priority 2004, dated 2012).)
